Assay [1] has as its target D(1A) dopamine receptor (Rattus norvegicus) (UniProt P18901). Description: Tested for its affinity towards Dopamine receptor D1 in rat striatal membrane. The assay is classed as cell membranes. The note with it: Striatum.
The next assay is filed under the species Rattus norvegicus. Description: Tested effective dose for maximal stimulation of adenylate cyclase in rat striatal membrane. As to conditions: Striatum. The assay is classed as functional.
For assay [2], the target named is D(1A) dopamine receptor (Rattus norvegicus) (UniProt P18901).
Chain of D(1A) dopamine receptor (Rattus norvegicus) (P18901 whole entry): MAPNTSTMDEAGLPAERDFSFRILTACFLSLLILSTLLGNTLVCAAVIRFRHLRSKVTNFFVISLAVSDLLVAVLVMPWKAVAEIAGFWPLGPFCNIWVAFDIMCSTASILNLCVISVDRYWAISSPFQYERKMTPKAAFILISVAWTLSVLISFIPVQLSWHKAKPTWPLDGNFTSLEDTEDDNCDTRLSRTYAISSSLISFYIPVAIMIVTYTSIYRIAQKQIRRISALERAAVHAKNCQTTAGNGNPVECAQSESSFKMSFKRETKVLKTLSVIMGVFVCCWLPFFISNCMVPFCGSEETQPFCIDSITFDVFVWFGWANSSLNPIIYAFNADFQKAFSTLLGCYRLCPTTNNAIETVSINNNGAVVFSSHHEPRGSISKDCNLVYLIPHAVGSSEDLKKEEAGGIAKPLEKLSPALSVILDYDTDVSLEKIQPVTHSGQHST
In assay [3] the target is D(2) dopamine receptor (Homo sapiens) (UniProt P14416).
Chain of D(2) dopamine receptor (Homo sapiens) (P14416 whole entry): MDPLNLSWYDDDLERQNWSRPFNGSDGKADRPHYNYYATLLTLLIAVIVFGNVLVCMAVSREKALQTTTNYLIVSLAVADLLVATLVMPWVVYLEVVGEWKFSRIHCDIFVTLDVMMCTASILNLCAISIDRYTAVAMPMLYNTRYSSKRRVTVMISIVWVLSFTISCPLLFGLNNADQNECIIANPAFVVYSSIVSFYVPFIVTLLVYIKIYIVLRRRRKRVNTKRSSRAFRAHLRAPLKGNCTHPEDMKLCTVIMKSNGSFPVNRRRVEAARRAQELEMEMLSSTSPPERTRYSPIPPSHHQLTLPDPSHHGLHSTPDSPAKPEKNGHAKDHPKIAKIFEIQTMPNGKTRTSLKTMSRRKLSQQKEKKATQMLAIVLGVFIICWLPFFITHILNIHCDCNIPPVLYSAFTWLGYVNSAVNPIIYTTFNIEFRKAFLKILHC
Description: Tested for binding affinity towards D2 receptor labelled by [3H]- spiperone as radioligand

Compound `CN1Cc2ccccc2[C@@H]2c3cccc4[nH]cc(c34)C[C@H]21` returned a pD2 in assay [1] of 6.1. Regarding `Oc1cc2c(cc1O)[C@H]1c3ccccc3CN[C@@H]1CC2` (racemic), the Stimulation in the assay listed under Rattus norvegicus amounted to 95%. In assay [2], this compound returned a K0.5 of 11.6 nM. For the compound `Oc1cc2c(cc1O)[C@H]1c3ccccc3CN[C@@H]1CC2` (stereo in doubt; (+)-2), the Stimulation in the assay listed under Rattus norvegicus turned out to be 105%. Moreover, the K0.5 in assay [3] is 87.7 nM; in assay [2], 5.6 nM. Regarding `Oc1cc2c(cc1O)[C@H]1c3ccccc3CN[C@@H]1CC2` (stereo in doubt; (-)-2), in assay [2], the K0.5 was 149 nM.
